Assay results taken from patent publication US20220009914A1, “Analogs of Nitrofuran Antibiotics to Combat Resistance” (The Trustees of Indiana University, priority 2020, published 2022).
Where two headings read alike, the source gives them in different places.

How the values were obtained:
[1] = target: T1, native rhodanese (Bos taurus, UniProt P00586); assay: native rhodanese enzymatic activity counter-screen; assay type: biochemical
T1 sequence (P00586 1-297): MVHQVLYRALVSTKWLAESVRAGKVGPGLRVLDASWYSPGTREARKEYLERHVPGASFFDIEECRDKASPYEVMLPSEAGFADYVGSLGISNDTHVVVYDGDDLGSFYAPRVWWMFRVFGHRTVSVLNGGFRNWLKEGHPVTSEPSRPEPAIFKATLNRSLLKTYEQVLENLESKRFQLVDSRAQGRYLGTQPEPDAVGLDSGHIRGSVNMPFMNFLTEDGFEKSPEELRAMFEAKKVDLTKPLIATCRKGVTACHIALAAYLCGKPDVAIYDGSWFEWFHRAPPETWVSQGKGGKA
Description: Counter-screening compounds for inhibition of native rhodanese enzymatic activity. Reagent Preparations & Assay Protocol: Reagents were identical to those used in the GroEL/ES-dRho refolding assay described above; however, the assay protocol differed in the sequence of compound addition to the wells. Compounds were pin-transferred after 50 minute incubation for the refolding cycle, but prior to the addition of the thiocyanate enzymatic assay stock. Thus, the refolding reactions were allowed to proceed for 50 min at 37° C. in the absence of test compounds, but the enzymatic activity of the refolded rhodanese reporter enzyme was monitored in the presence of test compounds (inhibitor concentration range during the enzymatic reporter reaction is 100 μM to 46 nM—3-fold dilutions). IC50 values for the rhodanese reporter enzyme were determined as described above. Results presented represent the averages of IC50 values obtained from at least four replicates.
All compounds were counter-screened for inhibiting the enzymatic activity of the native Rho reporter enzyme as per our previously reported procedure. Results presented represent the averages of IC50 values obtained from at least four replicates.

[2] = target: T2, native MDH (Sus scrofa, UniProt P00346); assay: native MDH enzymatic activity counter-screen; assay type: biochemical, pig; details: without NfsB nitroreductase; compounds added after refolding; read-out: Native MDH Activity IC50
T2 sequence (P00346 25-338): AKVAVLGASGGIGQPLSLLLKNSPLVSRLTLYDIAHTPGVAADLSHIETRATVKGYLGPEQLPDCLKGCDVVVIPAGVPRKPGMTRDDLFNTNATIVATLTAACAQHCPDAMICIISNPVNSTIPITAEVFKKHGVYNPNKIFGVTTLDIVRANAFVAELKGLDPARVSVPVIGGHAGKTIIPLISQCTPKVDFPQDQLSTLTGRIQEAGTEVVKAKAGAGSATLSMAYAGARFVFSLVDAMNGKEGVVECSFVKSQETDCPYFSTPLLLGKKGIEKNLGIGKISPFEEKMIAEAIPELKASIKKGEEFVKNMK
Description: Reagent Preparations & Assay Protocol: This assay was performed as described above for the GroEL/ES-dMDH refolding assay; however, the assay protocol differed in the sequence of compound addition to the assay plates. The refolding reactions were allowed to proceed for 45 min at 37° C. in the absence of test compounds (complete refolding of MDH occurs), then quenched with the EDTA stock. Compounds were then pin-transferred into the plates after the EDTA quenching step; thus, compound effects are only possible by inhibiting the fully-refolded MDH reporter substrate. […] A340 nm measurements were recorded at 0.5 minutes (start point) and at successive time points until the amount of NADH consumed reached ˜90% (end point, generally between 20-35 minutes). Compounds were tested in 8-point, 3-fold dilution series (62.5 μM to 29 nM during the reporter reaction) in clear, flat-bottom 384-well microtiter plates. IC50 values for the MDH reporter enzyme were determined as described above. Results presented represent the averages of IC50 values obtained from at least five replicates.
Evaluating analogs for inhibiting GroEL/ES-mediated substrate refolding functions. […] We first evaluated all test compounds in our standard GroEL/ES-mediated refolding assays that employ either malate dehydrogenase (MDH) or rhodanese (Rho) as the denatured substrate reporter enzymes. When denatured, these enzymes are efficiently folded by GroEL/ES in the absence of inhibitors, and thus act as reporters to determine the degree of inhibition against the bacterial chaperonin system. Inhibition was examined in the presence of these two orthogonal substrates in order to support that GroEL/ES inhibitors were on-target. To further support on-target effects against GroEL/ES, we counter-screened for inhibition of the native MDH and Rho enzymatic reporter reactions, where test compounds were added after the denatured MDH and Rho substrate enzymes were completely refolded by GroEL/ES.

[3] = compounds added after refolding, read-out: Native Rho Activity IC50

SMILES | IC50 [1, 3] [µM] | IC50 [2] [µM] | IC50 [1] [µM]
CCOc1ccc(S(=O)(=O)Nc2ccc(C(=O)N/N=C/c3ccc(O)c4ncccc34)cc2)cc1 [Compound 15, 4-ethoxy-N-(4-(2-((8-hydroxyquinolin-5-yl)methylene)hydrazine-1-carbonyl)phenyl)benzenesulfonamide] | > 100 | > 63 | 
CCOc1ccc(S(=O)(=O)Nc2ccc(C(=O)N/N=C/c3ccc([N+](=O)[O-])o3)cc2)cc1 [Compound 28, 4-ethoxy-N-(4-(2-((5-nitrofuran-2-yl)methylene)hydrazine-1-carbonyl)phenyl)benzenesulfonamide] | 45 | > 63 | 
O=Cc1ccc([N+](=O)[O-])o1 [Compound 41, reference compound] | 32 | > 63 | 
O=C(N/N=C/c1ccc([N+](=O)[O-])o1)c1ccc(NS(=O)(=O)c2cccs2)cc1 [Compound 26, N-(4-(2-((5-nitrofuran-2-yl)methylene)hydrazine-1-carbonyl)phenyl)thiophene-2-sulfonamide] | 44 | > 63 | 
COc1ccc(C(=O)N/N=C/c2ccc(O)cc2)cc1 [Compound 35, N′-(4-hydroxybenzylidene)-4-methoxybenzohydrazide] | > 100 | > 63 | 
O=C(N/N=C/c1cccc2ccccc12)c1ccccc1 [Compound 34, N′-(naphthalen-1-ylmethylene)benzohydrazide] | > 100 | > 63 | 
O=C(N/N=C/c1cccc2ncccc12)c1ccccc1 [Compound 32, N′-(quinolin-5-ylmethylene)benzohydrazide] | > 100 | > 63 | 
O=C(N/N=C/c1ccc([N+](=O)[O-])o1)c1ccncc1 [Compound 19, N′-((5-nitrofuran-2-yl)methylene)isonicotinohydrazide] | 38 |  | 
CCN(CC)S(=O)(=O)c1cccc(C(=O)N/N=C/c2ccc([N+](=O)[O-])o2)c1 [Compound 25, N,N-diethyl-3-(2-((5-nitrofuran-2-yl)methylene)hydrazine-1-carbonyl)benzenesulfonamide] | > 100 | > 63 | 
CN(C)c1ccc(C(=O)N/N=C/c2ccc(O)c3ncccc23)cc1 [Compound 8, 4-(dimethylamino)-N′-((8-hydroxyquinolin-5-yl)methylene)benzohydrazide] | 67 | > 63 | 
O=C(N/N=C/c1ccc(O)c2ncccc12)c1ccc(NS(=O)(=O)c2cccs2)cc1 [Compound 13, N-(4-(2-((8-hydroxyquinolin-5-yl)methylene)hydrazine-1-carbonyl)phenyl)thiophene-2-sulfonamide] | > 100 | > 63 | 
O=C(N/N=C/c1ccc(O)c2ccccc12)c1ccccc1 [Compound 30, N′-((4-hydroxynaphthalen-1-yl)methylene)benzohydrazide] | 97 | > 63 | 
O=C(N/N=C/c1ccc(O)c2ncccc12)c1ccncc1 [Compound 6, N′-((8-hydroxyquinolin-5-yl)methylene)isonicotinohydrazide] | > 100 | > 63 | 
O=C(N/N=C/c1ccc([N+](=O)[O-])o1)c1cccs1 [Compound 16, N′-((5-nitrofuran-2-yl)methylene)thiophene-2-carbohydrazide] | > 100 |  | 
O=C1CN(/N=C/c2ccc(O)c3ncccc23)C(=O)N1 [Compound 2, 1-(((8-hydroxyquinolin-5-yl)methylene)amino)imidazolidine-2,4-dione] | > 100 | > 63 | 
O=[N+]([O-])c1ccc(O)c2ncccc12 [Nitroxoline, reference compound] | 2 | > 63 | 
COc1ccc(C(=O)NN)cc1 [Compound 42, reference compound] | > 100 | > 63 | 

SMILES | IC50 [1, 3] [µM] | IC50 [2] [µM] | IC50 [1] [µM]
COc1ccc(C(=O)N/N=C/c2ccccc2)cc1 [Compound 37, N′-benzylidene-4-methoxybenzohydrazide] | > 100 | > 63 | 
COc1ccc(C(=O)N/N=C/c2ccc([N+](=O)[O-])o2)cc1 [Compound 20, 4-methoxy-N′-((5-nitrofuran-2-yl)methylene)benzohydrazide] | > 100 |  | 
O=C(N/N=C/c1ccc(O)c2ncccc12)c1ccc(Cl)s1 [Compound 4, 5-chloro-N′-((8-hydroxyquinolin-5-yl)methylene)thiophene-2-carbohydrazide] | 14 | > 63 | 
O=C(N/N=C/c1ccc(O)c2ncccc12)c1cccc2ccccc12 [Compound 9, N′-((8-hydroxyquinolin-5-yl)methylene)-1-naphthohydrazide] | 97 | > 63 | 
O=Cc1ccc(O)c2ncccc12 [Compound 40, reference compound] | 18 | > 63 | 
O=C(N/N=C/c1ccc([N+](=O)[O-])o1)c1ccccc1Oc1ccccc1 [Compound 23, N′-((5-nitrofuran-2-yl)methylene)-2-phenoxybenzohydrazide] | 43 | > 63 | 
COc1ccc(C(=O)N/N=C/c2ccco2)cc1 [Compound 39, N′-(furan-2-ylmethylene)-4-methoxybenzohydrazide] | > 100 | > 63 | 
O=C(N/N=C/c1ccccc1)c1ccccc1 [Compound 38, N′-benzylidenebenzohydrazide] | > 100 | > 63 | 
O=C(N/N=C/c1ccc([N+](=O)[O-])o1)c1cccc2ccccc12 [Compound 22, N′-((5-nitrofuran-2-yl)methylene)-1-naphthohydrazide] | 45 | > 63 | 
O=C(N/N=C/c1ccc(O)c2ncccc12)c1ccc(O)cc1 [Compound 7, 4-hydroxy-N′-((8-hydroxyquinolin-5-yl)methylene)benzohydrazide] | 72 | > 63 | 
COc1ccc(C(=O)N/N=C/c2cccc3ccccc23)cc1 [Compound 33, 4-methoxy-N′-(naphthalen-1-ylmethylene)benzohydrazide] | > 100 | > 63 | 
O=C(N/N=C/c1ccc(O)c2ncccc12)c1cccc(Oc2ccccc2)c1 [Compound 11, N′-((8-hydroxyquinolin-5-yl)methylene)-3-phenoxybenzohydrazide] | 85 | > 63 | 
CCN(CC)S(=O)(=O)c1cccc(C(=O)N/N=C/c2ccc(O)c3ncccc23)c1 [Compound 12, N,N-diethyl-3-(2-((8-hydroxyquinolin-5-yl)methylene)hydrazine-1-carbonyl)benzenesulfonamide] | 81 | > 63 | 
O=C(N/N=C/c1ccc([N+](=O)[O-])o1)c1ccccc1 [Compound 18, N′-((5-nitrofuran-2-yl)methylene)benzohydrazide] | 84 |  | 
O=C1CN(/N=C/c2ccc([N+](=O)[O-])o2)C(=O)N1 [Nitrofurantoin, reference compound] |  |  | > 100
O=C(N/N=C/c1ccc([N+](=O)[O-])o1)c1ccc(Cl)s1 [Compound 17, 5-chloro-N′-((5-nitrofuran-2-yl)methylene)thiophene-2-carbohydrazide] | 56 |  | 
CN(C)c1ccc(C(=O)N/N=C/c2ccc([N+](=O)[O-])o2)cc1 [Compound 21, 4-(dimethylamino)-N′-((5-nitrofuran-2-yl)methylene)benzohydrazide] | > 100 |  | 
